pIC50: −log10 of the molar value. Where a name gives a salt, the structure may show the parent alone.
test system: human primary T-cells, IL-2 stimulated proliferation (JAK-1 and JAK-3 dependent; reported as JAK3 activity); experiment: Human primary T-cell proliferation stimulated by IL-2 (Example 3); type: cell-based; conditions: Homo sapiens, T-cell, tested under conditions described in Example 3 (IL-2 stimulated human primary T-cell proliferation); read-out: ability to inhibit JAK3 activity, IC50 range (Table V)
Method in brief: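 Peripheral-blood human T-cells pre-activated via TCR/CD28, IL-2-starved overnight, then cultured 72 h at 37 °C with compound in Yssel's medium containing IL-2 (80 U/mL in cell suspension). Proliferation read as viable-cell ATP by CellTiter-Glo luminescence; reduction versus control taken as JAK pathway inhibition.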

Compound	pIC50
COc1cc(Nc2ncc(C)c(Nc3ccc4oc(=O)[nH]c4c3)n2)cc(C)c1OC [Compound I-452, 5-(2-(3,4-dimethoxy-5-methylphenylamino)-5-methylpyrimidin-4-ylamino)benzo[d]oxazol-2(3H)-one]	> 6.30
Cc1cnc(Nc2cnc3c(c2)OCC(=O)N3)nc1Nc1ccc2oc(=O)[nH]c2c1 [IV-46, 5-methyl-N4-(2-oxo-2,3-dihydro-1,3-benzoxazol-5-yl)-N2-(2H-pyrido[3,2-b][1,4]oxazin-3 (4H)-one-7-yl)-2,4-pyrimidinediamine]	> 6.30
Cc1cnc(Nc2cnc(N3CCN(C)CC3)c(F)c2)nc1Nc1ccc2oc(=O)[nH]c2c1 [II-111, N4-(benzo[d]oxazolin-2(3H)-one-5-yl)-N2-[3-fluoro-2-(4-methylpiperazin-1-yl)pyridine-5-yl]-5-methyl-2,4-pyrimidinediamine]	> 6.30
Cc1cnc(Nc2ccc(NC3CCN(C)CC3)nc2)nc1Nc1ccc2oc(=O)[nH]c2c1 [II-35, N4-(benzo[d]oxazol-2(3H)-on-5-yl)-N2-[2-(1-methylpiperidin-4-yl)aminopyridin-5-yl]-5-methylpyrimidine-2,4-diamine]	> 6.30
COc1cc(Nc2ncc(C)c(Nc3cc(C)c4oc(=O)[nH]c4c3)n2)cc(C)c1F [Compound I-491, 5-(2-(4-fluoro-3-methoxy-5-methylphenylamino)-5-methylpyrimidin-4-ylamino)-7-methylbenzo[d]oxazol-2(3H)-one]	> 6.30
COc1ccc(Nc2ncc(C)c(Nc3ccc4oc(=O)[nH]c4c3)n2)cc1C(=O)N1CCOCC1 [Compound I-262, 5-(2-(4-methoxy-3-(morpholine-4-carbonyl)phenylamino)-5-methylpyrimidin-4-ylamino)benzo[d]oxazol-2(3H)-one]	> 6.30
COc1cc(Nc2ncc(C)c(Nc3ccc4oc(=O)[nH]c4c3)n2)cc(C(C)O)c1 (stereo not drawn) [Compound I-423, 5-(2-(3-(1-hydroxyethyl)-5-methoxyphenylamino)-5-methylpyrimidin-4-ylamino)benzo[d]oxazol-2(3H)-one]	> 6.30
O=c1[nH]c2cc(Nc3nc(Nc4cccc(OC(F)(F)F)c4)ncc3F)ccc2o1 [Compound I-107, N4-(benzoxazolin-2-on-5-yl)-N2-(3-trifluoromethoxyphenyl)-5-fluoropyrimidine-2,4-diamine trifluoroacetate salt]	5.30 to 6.30
COc1ccc(Nc2ncc(C)c(Nc3cc(C)c4oc(=O)[nH]c4c3)n2)cc1C [Compound I-429, 5-(2-(4-methoxy-3-methylphenylamino)-5-methylpyrimidin-4-ylamino)-7-methylbenzo[d]oxazol-2(3H)-one]	> 6.30
Cc1cnc(Nc2ccc(C(C)(C)C)cc2)nc1Nc1ccc2oc(=O)[nH]c2c1 [Compound I-420, 5-(2-(4-tert-butylphenylamino)-5-methylpyrimidin-4-ylamino)benzo[d]oxazol-2(3H)-one]	> 6.30
COc1cc(Nc2ncc(C)c(Nc3ccc4oc(=O)[nH]c4c3)n2)ccc1C(=O)N1CCN(C)CC1 [Compound I-270, 5-(2-(3-methoxy-4-(4-methylpiperazine-1-carbonyl)phenylamino)-5-methylpyrimidin-4-ylamino)benzo[d]oxazol-2(3H)-one]	> 6.30
Cc1cnc(Nc2ccc(F)c(OC(F)(F)F)c2)nc1Nc1ccc2oc(=O)[nH]c2c1 [Compound I-163, 5-[2-(4-Fluoro-3-trifluoromethoxy-phenylamino)-5-methyl-pyrimidin-4-ylamino]-3H-benzooxazol-2-one]	> 6.30
Cc1cnc(Nc2ccc(N3CCN(C(=O)C(F)(F)F)[C@H](C)C3)nc2)nc1Nc1ccc2oc(=O)[nH]c2c1 [II-57, (R)-5-(5-methyl-2-(6-(3-methyl-4-(2,2,2-trifluoroacetyl)piperazin-1-yl)pyridin-3-ylamino)pyrimidin-4-ylamino)benzo[d]oxazol-2(3H)-one]	> 6.30
Cc1cnc(Nc2ccc(OC(C)C)nc2)nc1Nc1ccc2oc(=O)[nH]c2c1 [II-144, N2-(2-isopropoxypyridin-5-yl)-5-methyl-N4-(2-oxo-2,3-dihydro-1,3-benzoxazol-5-yl)-2,4-pyrimidinediamine]	> 6.30
COc1ccc(Nc2ncc(C)c(Nc3ccc4oc(=O)[nH]c4c3)n2)cc1COC(C)C [Compound I-422, 5-(2-(3-(isopropoxymethyl)-4-methoxyphenylamino)-5-methylpyrimidin-4-ylamino)benzo[d]oxazol-2(3H)-one]	> 6.30
Cc1cccc(Nc2ncc(C)c(Nc3ccc4oc(=O)[nH]c4c3)n2)c1 [Compound I-403, 5-(5-Methyl-2-m-tolylamino-pyrimidin-4-ylamino)-3H-benzooxazol-2-one]	> 6.30
Cc1cnc(Nc2ccc3c(c2)NC(=O)CO3)nc1Nc1ccc2oc(=O)[nH]c2c1 [IV-25, 6-(5-methyl-4-(2-oxo-2,3-dihydrobenzo[d]oxazol-5-ylamino)pyrimidin-2-ylamino)-2H-benzo[b][1,4]oxazin-3 (4H)-one]	> 6.30
COc1cc(C)cc(Nc2ncc(C)c(Nc3ccc4oc(=O)[nH]c4c3)n2)c1 [Compound I-259, 5-(2-(3-methoxy-5-methylphenylamino)-5-methylpyrimidin-4-ylamino)benzo[d]oxazol-2(3H)-one]	> 6.30
Cc1cnc(Nc2ccccc2)nc1Nc1ccc2oc(=O)[nH]c2c1 [Compound I-174, 5-(5-Methyl-2-phenylamino-pyrimidin-4-ylamino)-3H-benzooxazol-2-one]	> 6.30
Cc1cnc(Nc2cnc(N3C[C@@H]4C[C@H]3CN4C)c(F)c2)nc1Nc1ccc2oc(=O)[nH]c2c1 [II-40, N4-(benzoxazolin-2-on-5-yl)-N2-[3-fluoro-2-((1S,4S)-5-methyl-2,5-diazabicyclo[2.2.1]heptan-2-yl)pyridin-5-yl]-5-methylpyrimidine-2,4-diamine]	> 6.30
Cc1cnc(Nc2cc(C)c(OCCN3CCOCC3)c(C)c2)nc1Nc1ccc2oc(=O)[nH]c2c1 [Compound I-459, 5-(2-(3,5-dimethyl-4-(2-morpholinoethoxy)phenylamino)-5-methylpyrimidin-4-ylamino)benzo[d]oxazol-2(3H)-one]	> 6.30
Cc1cnc(Nc2ccc(C(=O)N3CCOCC3)cc2)nc1Nc1ccc2oc(=O)[nH]c2c1 [Compound I-257, 5-(5-methyl-2-(4-(morpholine-4-carbonyl)phenylamino)pyrimidin-4-ylamino)benzo[d]oxazol-2(3H)-one]	> 6.30
Cc1cnc(Nc2ccc(C(=O)N3CCN(CC4CC4)CC3)nc2)nc1Nc1ccc2oc(=O)[nH]c2c1 [II-46, 5-{2-[6-(4-Cyclopropylmethyl-piperazine-1-carbonyl)-pyridin-3-ylamino]-5-methyl-pyrimidin-4-ylamino}-3H-benzooxazol-2-one]	5.30 to 6.30
Cc1cnc(Nc2cnc(N3CCN4CCC3CC4)c(Cl)c2)nc1Nc1ccc2oc(=O)[nH]c2c1 [II-150, 5-(2-(6-(1,4-diazabicyclo[3.2.2]nonan-4-yl)-5-chloropyridin-3-ylamino)-5-methylpyrimidin-4-ylamino)benzo[d]oxazol-2(3H)-one]	> 6.30
Cc1cnc(Nc2ccc(C(C)NC3CC3)cc2)nc1Nc1ccc2oc(=O)[nH]c2c1 (stereo not drawn) [Compound I-202, 5-(2-(4-(1-(cyclopropylamino)ethyl)phenylamino)-5-methylpyrimidin-4-ylamino)benzo[d]oxazol-2(3H)-one]	> 6.30

same assay, conditions: tested under conditions described in Example 3 (IL-2 stimulated human primary T-cell proliferation); read-out: ability to inhibit JAK3 activity, IC50 range (Table V)

Compound	pIC50
Cc1cnc(Nc2cc(C)c(C)c(C)c2)nc1Nc1ccc2oc(=O)n(COP(=O)(O)O)c2c1 [Compound I-406, 5-methyl-N4-[3-(phosphonooxy)methyl-2-oxo-2,3-dihydro-1,3-benzoxazol-5-yl]-N2-(3,4,5-trimethyl)phenyl-2,4-pyrimidinediamine]	5.30 to 6.30
Cc1cnc(Nc2ccc(S(C)(=O)=O)cc2)nc1Nc1ccc2c(c1)oc(=O)n2C [Compound I-66, N2-((4-methylsulfonyl)phenyl)-N4-(3-methyl-2-oxo-2,3-dihydrobenzo[d]oxazol-6-yl)-5-methylpyrimidine-2,4-diamine]	> 6.30
COc1ccc(Nc2ncc(C)c(Nc3ccc4oc(=O)[nH]c4c3)n2)cc1OCCN(C)C [Compound I-300, N2-{4-methoxy-3-[2-(dimethylamino)ethoxy]}phenyl-5-methyl-N4-(2-oxo-2,3-dihydro-1,3-benzoxazol-5-yl)-2,4-pyrimidinediamine]	> 6.30
Cn1c(=O)n(C)c2cc(Nc3nc(Nc4ccc(S(N)(=O)=O)cc4)ncc3F)ccc21 [Compound I-40, N4-(1,3-dimethylbenzimidazolin-2-on-5-yl)-N2-((4-aminosulfonyl)phenyl)-5-fluoropyrimidine-2,4-diamine]	< 5.00
Cc1cnc(Nc2cc(F)cc(C(F)(F)F)c2)nc1Nc1ccc2oc(=O)[nH]c2c1 [Compound I-360, N2-(3-fluoro-5-trifluoromethyl)phenyl-5-methyl-N4-(2-oxo-2,3-dihydro-1,3-benzoxazol-5-yl)-2,4-pyrimidinediamine]	> 6.30
Cc1cnc(Nc2cccc(OC(C)(C)C#N)c2)nc1Nc1ccc2oc(=O)[nH]c2c1 [Compound I-342, N2-[3-(1-cyano-1-methyl)ethoxy]phenyl-5-methyl-N4-(2-oxo-2,3-dihydro-1,3-benzoxazol-5-yl)-2,4-pyrimidinediamine]	> 6.30
CCCn1c(=O)oc2ccc(Nc3nc(Nc4ccc(NS(C)(=O)=O)cc4)ncc3C)cc21 [Compound I-8, N4-(3-n-propylbenzo[d]oxazol-2(3H)-on-5-yl)-N2-((4-methylsulfonylamino)phenyl)-5-methylpyrimidine-2,4-diamine]	> 6.30
Cn1c(=O)oc2ccc(Nc3nc(Nc4ccc(F)c(NS(C)(=O)=O)c4)ncc3F)cc21 [Compound I-91, N2-((4-fluoro-3-methylsulfonylamino)phenyl)-N4-(3-methyl-2-oxo-2,3-dihydrobenzo[d]oxazol-5-yl)-5-fluoropyrimidine-2,4-diamine]	5.30 to 6.30
